Reference: patent publication US7544676B2, “Sulfamoyl benzamides and methods of their use” (Adolor Corporation, priority 2005, dated 2009)

Experiments:
[1] = target: T1, CB1 receptor (Homo sapiens, UniProt P21554); assay: Inhibition of [3H]CP55940 binding to cloned human CB1 receptor membranes
T1 construct: expressed in transfected cells; host or cells: CHO-K1
Procedure: (§1) Ki values in receptor binding experiments were determined by Cheng-Prusoff correction of IC50 values derived from automated nonlinear regression analysis of sigmoidal titration curves using a three-parameter modification (slope set to 1.0) of the four-parameter equation described in Cheng, Y.-C. and W. H. Prusoff, Biochem. Pharmacol. 22:3099-3108 (1973) and DeLean et al., Am. J. Physiol. 235:E97-E102 (1978).
(§2) Chinese hamster ovary cells (CHO-K1), stably transfected with either hCB1 or hCB2, were washed two times with cold PBS, scraped from 500 cm^2 tissue culture plates, and pelleted by centrifugation at 1000×g for 10 min. […]
(§3) Binding assays were performed by incubating 0.2-0.6 nM (34,000-100,000 dpm) [^3H]CP55940 with membranes prepared from cells expressing cloned human CB1 or CB2 receptors in buffer A (50 mM Tris HCl, pH 7.0, 5.0 mM MgCl2, 1.0 mM EGTA and 1.0 mg/mL fatty acid free bovine serum albumin). […] The filters were rinsed 6 times with one mL of cold wash buffer (50 mM Tris HCl, pH 7.0, 5.0 mM MgCl2, 1.0 mM EGTA and 0.75 mg/mL fatty acid free bovine serum albumin), 30 μL of MicroScint 20 was added to each filter and the radioactivity on the filters determined by scintillation spectroscopy. Nonspecific binding was determined in the presence of 10 μM WIN55212-2.

[2] = target: T2, CB2 receptor (Homo sapiens, UniProt P34972); assay: Inhibition of [3H]CP55940 binding to cloned human CB2 receptor membranes
T2 construct: expressed in transfected cells; host or cells: CHO-K1
Procedure: as §1, §2, §3

[3] = target: T1, CB1 receptor; assay: hCB1-mediated stimulation of [35S]GTPγS binding; type: biochemical; conditions: in vitro functional assay
Procedure: (§4) EC50 values in functional assays were also derived from automated nonlinear regression analysis of sigmoidal titration curves using the three-parameter modification of the four-parameter equation.
Chinese hamster ovary cells (CHO-K1), stably transfected with either hCB1 or hCB2, were washed two times with cold PBS, scraped from 500 cm^2 tissue culture plates, and pelleted by centrifugation at 1000×g for 10 min. The supernatant was discarded and the pellet was resuspended in Tris assay buffer (50 mM Tris HCl, pH 7.8, containing 1.0 mM EGTA, 5.0 mM MgCl2, […], and […] aprotinin), homogenized with a Polytron homogenizer (Brinkmann) at a setting of 1 for 20 sec and centrifuged at 38,000×g for 20 min at 4° C. […]
(§5) hCB1-Mediated stimulation of [^35S]GTPγS binding was measured in a mixture containing 100-150 pM [^35S]GTPγS, 150 mM NaCl, 45 mM MgCl2, […], 0.4 mM DTT, 1 mM EGTA, 1 mg/mL fatty acid free BSA, 25 μg of membrane protein and agonist in a total volume of 250 μL of buffer A in 96 well Basic Flashplates (Perkin Elmer). After incubation at room temperature for 2 hours the plates were centrifuged at 800×g at 4° C. for 5 min and the radioactivity bound to the membranes was determined by scintillation spectrometry using the Topcount (Perkin Elmer).

[4] = target: T2, CB2 receptor; assay: hCB2-mediated [35S]GTPγS binding; type: biochemical
Procedure: as §4, §2, §5
hCB2-Mediated [35 S]GTPγS binding was measured in the same way except the assay mixture contained […] and the incubation time was 6 hours. […] After incubation at 30° C. for 2 hours, the plates were centrifuged at 800×g at 4° C. for 5 min and the radioactivity bound to the membrane was determined by scintillation spectrometry using the Topcount (Perkin Elmer).

T2 sequence (P34972 whole entry): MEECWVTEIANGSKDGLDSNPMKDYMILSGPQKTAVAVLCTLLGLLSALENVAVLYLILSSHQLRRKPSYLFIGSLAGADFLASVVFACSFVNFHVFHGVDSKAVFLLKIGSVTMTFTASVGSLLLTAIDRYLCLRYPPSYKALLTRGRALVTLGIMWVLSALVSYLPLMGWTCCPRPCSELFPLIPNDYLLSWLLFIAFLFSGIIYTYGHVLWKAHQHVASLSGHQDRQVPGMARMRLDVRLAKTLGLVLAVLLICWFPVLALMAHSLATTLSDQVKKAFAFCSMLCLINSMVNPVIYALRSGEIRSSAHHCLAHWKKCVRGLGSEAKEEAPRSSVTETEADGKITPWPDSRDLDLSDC
T1 sequence (P21554 whole entry): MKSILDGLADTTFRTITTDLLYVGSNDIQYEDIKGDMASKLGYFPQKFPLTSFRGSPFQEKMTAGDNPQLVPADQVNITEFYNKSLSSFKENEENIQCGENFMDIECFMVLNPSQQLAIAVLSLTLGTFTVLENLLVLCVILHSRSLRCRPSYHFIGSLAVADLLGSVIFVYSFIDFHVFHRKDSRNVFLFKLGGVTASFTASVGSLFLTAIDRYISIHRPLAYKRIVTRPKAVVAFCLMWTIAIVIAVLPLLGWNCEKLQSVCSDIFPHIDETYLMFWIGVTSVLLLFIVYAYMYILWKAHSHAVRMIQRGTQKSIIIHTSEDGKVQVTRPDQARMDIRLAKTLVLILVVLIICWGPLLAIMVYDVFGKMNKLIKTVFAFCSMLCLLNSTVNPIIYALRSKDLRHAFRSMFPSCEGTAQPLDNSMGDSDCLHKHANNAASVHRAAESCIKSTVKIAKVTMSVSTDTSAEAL

Row | SMILES | Ki [1] [nM] | Ki [2] [nM] | in vitro CB1 receptor agonist activity [3] | EC50 ([4]; agonist mode, read-out: in vitro CB2 receptor agonist potency (EC50)) [nM] | IC50 ([4]; antagonist mode, read-out: in vitro CB2 receptor antagonist potency (IC50)) [nM]
1 | CNc1ccc(C(=O)N[C@@H]2C(C)(C)[C@@H]3CC[C@@]2(C)C3)cc1S(=O)(=O)N(C)C [Compound 1X, 3-(N,N-dimethylsulfamoyl)-4-(methylamino)-N-((1S,2S,4R)-1,3,3-trimethylbicyclo[2.2.1]heptan-2-yl)benzamide] | 1930 | 8.9 | no in vitro CB1 receptor agonist activity | 18.6 | –
2 | COCCNc1ccc(C(=O)NC2C(C)(C)[C@@H]3CC[C@@]2(C)C3)cc1S(=O)(=O)N1CCOCC1 (stereo partly drawn) [Compound 2D, 4-(2-methoxyethylamino)-3-(morpholinosulfonyl)-N-((1S,4R)-1,3,3-trimethylbicyclo[2.2.1]heptan-2-yl)benzamide] | 1310 | 1.6 | – | – | 8.5
